PubChem BioAssay AID272 (DTP/NCI, 2004)
Several values for one entry are separate records, joined by “and”; a condition that tells them apart may be missing. Equal entries are not always repeated. Records with an inconclusive call do not appear.

Test system: Lewis lung carcinoma i.m., BDF1 mice, T/C %
Test: NCI In Vivo Anticancer Drug Screen. Data for tumor model Lewis Lung Carcinoma (intramuscular) in B6D2F1 (BDF1) mice
Procedure, shortened: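 Antitumour activity is assessed in transplanted-tumour mice. Endpoint is survival or tumour size, normalised to vehicle-dosed controls (T/C).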

O=P1(NCCCl)OCCCN1CCCl (configuration not stated)
T/C (endpoint: mean tumor weight, dose: 23.0 mg/kg/injection, schedule: Q01DX011 (ip), vehicle: water, higher = larger tumour): 101 % of control | T/C (endpoint: mean tumor weight, dose: 39.0 mg/kg/injection, schedule: Q01DX011 (ip), vehicle: water, higher = larger tumour): 66 % of control | T/C (endpoint: mean tumor weight, dose: 108.0 mg/kg/injection, schedule: Q01DX001 (ip), vehicle: water, higher = larger tumour): 72 % of control | T/C (endpoint: mean tumor weight, dose: 180.0 mg/kg/injection, schedule: Q01DX001 (ip), vehicle: water, higher = larger tumour): 14 % of control | T/C (endpoint: median survival time, dose: 23.0 mg/kg/injection, schedule: Q01DX011 (ip), vehicle: water, higher = longer survival): 118 % of control and 122 % of control | T/C (endpoint: median survival time, dose: 39.0 mg/kg/injection, schedule: Q01DX011 (ip), vehicle: water, higher = longer survival): 94 % of control and 124 % of control | T/C (endpoint: median survival time, dose: 65.0 mg/kg/injection, schedule: Q07DX Z (ip), vehicle: water, higher = longer survival): 110 % of control | T/C (endpoint: median survival time, dose: 108.0 mg/kg/injection, schedule: Q01DX001 (ip), vehicle: water, higher = longer survival): 88 % of control and 98 % of control | T/C (endpoint: median survival time, dose: 108.0 mg/kg/injection, schedule: Q01DX011 (ip), vehicle: water, higher = longer survival): 104 % of control | T/C (endpoint: median survival time, dose: 108.0 mg/kg/injection, schedule: Q04DX Z (ip), vehicle: water, higher = longer survival): 98 % of control | T/C (endpoint: median survival time, dose: 108.0 mg/kg/injection, schedule: Q07DX Z (ip), vehicle: water, higher = longer survival): 112 % of control | T/C (endpoint: median survival time, dose: 180.0 mg/kg/injection, schedule: Q01DX001 (ip), vehicle: water, higher = longer survival): 114 % of control | T/C (endpoint: median survival time, dose: 180.0 mg/kg/injection, schedule: Q07DX Z (ip), vehicle: water, higher = longer survival): 104 % of control | T/C (endpoint: median survival time, dose: 300.0 mg/kg/injection, schedule: Q01DX001 (ip), vehicle: water, higher = longer survival): 164 % of control and 178 % of control | T/C (endpoint: median survival time, dose: 300.0 mg/kg/injection, schedule: Q04DX Z (ip), vehicle: water, higher = longer survival): 120 % of control | T/C (endpoint: median survival time, dose: 300.0 mg/kg/injection, schedule: Q07DX Z (ip), vehicle: water, higher = longer survival): 158 % of control

C[N+](C)(C)c1cc2c(nn1)Nc1ccccc1S2
T/C (endpoint: mean tumor weight (est.), dose: 1.06 mg/kg/injection, schedule: Q01DX011 (ip), vehicle: saline, higher = larger tumour): 83 % of control | T/C (endpoint: mean tumor weight (est.), dose: 2.12 mg/kg/injection, schedule: Q01DX011 (ip), vehicle: saline, higher = larger tumour): 88 % of control | T/C (endpoint: mean tumor weight (est.), dose: 4.25 mg/kg/injection, schedule: Q01DX011 (ip), vehicle: saline, higher = larger tumour): 69 % of control | T/C (endpoint: mean tumor weight (est.), dose: 8.5 mg/kg/injection, schedule: Q01DX011 (ip), vehicle: saline, higher = larger tumour): 110 % of control | T/C (endpoint: median survival time, dose: 1.06 mg/kg/injection, schedule: Q01DX011 (ip), vehicle: saline, higher = longer survival): 103 % of control | T/C (endpoint: median survival time, dose: 2.12 mg/kg/injection, schedule: Q01DX011 (ip), vehicle: saline, higher = longer survival): 100 % of control | T/C (endpoint: median survival time, dose: 4.25 mg/kg/injection, schedule: Q01DX011 (ip), vehicle: saline, higher = longer survival): 105 % of control | T/C (endpoint: median survival time, dose: 8.5 mg/kg/injection, schedule: Q01DX011 (ip), vehicle: saline, higher = longer survival): 96 % of control

O=c1[nH]cc(N(CCCl)CCCl)c(=O)[nH]1
T/C (endpoint: median survival time, dose: 0.13 mg/kg/injection, schedule: Q01DX011 (ip), vehicle: other, higher = longer survival): 104 % of control | T/C (endpoint: median survival time, dose: 0.25 mg/kg/injection, schedule: Q01DX011 (ip), vehicle: other, higher = longer survival): 110 % of control | T/C (endpoint: median survival time, dose: 0.5 mg/kg/injection, schedule: Q01DX011 (ip), vehicle: other, higher = longer survival): 102 % of control | T/C (endpoint: median survival time, dose: 0.5 mg/kg/injection, schedule: Q01DX011 (ip), vehicle: saline, higher = longer survival): 92 % of control

COc1cc([C@@H]2c3cc4c(cc3[C@H](O)[C@H]3COC(=O)[C@H]23)OCO4)cc(OC)c1OC
T/C (endpoint: mean tumor weight, dose: 0.25 mg/kg/injection, schedule: Q01DX011 (ip), vehicle: Klucel (hydroxypropylcellulose) (HPC), higher = larger tumour): 100 % of control | T/C (endpoint: mean tumor weight, dose: 0.5 mg/kg/injection, schedule: Q01DX011 (ip), vehicle: Klucel (hydroxypropylcellulose) (HPC), higher = larger tumour): 77 % of control | T/C (endpoint: mean tumor weight, dose: 1.0 mg/kg/injection, schedule: Q01DX011 (ip), vehicle: Klucel (hydroxypropylcellulose) (HPC), higher = larger tumour): 105 % of control | T/C (endpoint: median survival time, dose: 0.13 mg/kg/injection, schedule: Q01DX011 (ip), vehicle: Klucel (hydroxypropylcellulose) (HPC), higher = longer survival): 87 % of control | T/C (endpoint: median survival time, dose: 0.25 mg/kg/injection, schedule: Q01DX011 (ip), vehicle: Klucel (hydroxypropylcellulose) (HPC), higher = longer survival): 107 % of control | T/C (endpoint: median survival time, dose: 0.5 mg/kg/injection, schedule: Q01DX011 (ip), vehicle: Klucel (hydroxypropylcellulose) (HPC), higher = longer survival): 114 % of control

CN1CCN(c2ccc([N+](=O)[O-])c3no[n+]([O-])c23)CC1
T/C (endpoint: median survival time, dose: 10.0 mg/kg/injection, schedule: Q02DX011 (ip), vehicle: saline with Tween-80, higher = longer survival): 105 % of control | T/C (endpoint: median survival time, dose: 20.0 mg/kg/injection, schedule: Q02DX011 (ip), vehicle: saline with Tween-80, higher = longer survival): 94 % of control

Cc1nc(N)nc(N)c1-c1ccc(Cl)c(Cl)c1
T/C (endpoint: mean tumor weight, dose: 6.0 mg/kg/injection, schedule: Q04DX004 (ip), vehicle: saline, higher = larger tumour): 180 % of control | T/C (endpoint: median survival time, dose: 4.0 mg/kg/injection, schedule: Q04DX004 (ip), vehicle: saline, higher = longer survival): 100 % of control | T/C (endpoint: median survival time, dose: 8.0 mg/kg/injection, schedule: Q04DX004 (ip), vehicle: saline, higher = longer survival): 116 % of control

CS(=O)(=O)OCCC(=O)N1CCN(C(=O)CCOS(C)(=O)=O)CC1
T/C (endpoint: mean tumor weight, dose: 12.5 mg/kg/injection, schedule: Q01DX011 (ip), vehicle: saline, higher = larger tumour): 79 % of control | T/C (endpoint: mean tumor weight, dose: 25.0 mg/kg/injection, schedule: Q01DX011 (ip), vehicle: saline, higher = larger tumour): 60 % of control | T/C (endpoint: mean tumor weight, dose: 50.0 mg/kg/injection, schedule: Q01DX011 (ip), vehicle: saline, higher = larger tumour): 61 % of control | T/C (endpoint: median survival time, dose: 12.5 mg/kg/injection, schedule: Q01DX011 (ip), vehicle: saline, higher = longer survival): 104 % of control | T/C (endpoint: median survival time, dose: 25.0 mg/kg/injection, schedule: Q01DX011 (ip), vehicle: saline, higher = longer survival): 97 % of control

CSc1nc(N)cc(NC(=O)CCl)n1
T/C (endpoint: mean tumor weight (est.), dose: 25.0 mg/kg/injection, schedule: Q01DX011 (ip), vehicle: saline, higher = larger tumour): 92 % of control | T/C (endpoint: mean tumor weight (est.), dose: 50.0 mg/kg/injection, schedule: Q01DX011 (ip), vehicle: saline, higher = larger tumour): 69 % of control | T/C (endpoint: mean tumor weight (est.), dose: 100.0 mg/kg/injection, schedule: Q01DX011 (ip), vehicle: saline, higher = larger tumour): 35 % of control
